Laboratory results reported in patent US10808041B2, “Lincosamides universal monoclonal antibody hybridoma cell strain and application thereof” (Jiangnan University, priority 2017, dated 2020).

Tested on: lincosamides universal monoclonal antibody secreted by monoclonal cell strain CGMCC No. 14691
Test: indirect competitive ELISA with coating antigen Lin-OVA
Assay type: binding, BALB/c mice
Conditions: lincosamides standard substances competing with coating antigen Lin-OVA
Procedure: The specific ELISA procedure was as follows:
Coating: the coating antigen was subjected to gradient dilution with a 0.05 M pH 9.6 carbonate buffer solution, and incubated at 37° C. for 2 h at 100 μL/well.
Washing: a solution in a plate was decanted, and 200 μL of a PBST solution was injected into each well, placed on a shaker to shake for 3 min, spin-dried, and washed 3 times. The following washing method was the same.
Blocking: After patting dry, 200 μL of a blocking buffer was added to each well, and incubated at a temperature of 37° C. for 2 h. After washing, the product was dried to be ready for use.
Color development: the ELISA plate was taken out, and fully washed, and then 100 μL of a color developing solution (the ratio of TMB to a substrate liquid is 1:5) was added to each well to react at a temperature of 37° C. for 15 min in the dark.
Stopping and determination: the ELISA plate was taken out, 50 μL of a stop solution (2 mol/L sulfuric acid) was added to each well to stop the reaction, and then the absorbance A450 of each well was determined by an ELISA reader.

half inhibition concentration (IC50) of the monoclonal antibody [µg/mL]	Structure (SMILES)
0.019314	CC[C@@H]1CCN[C@H](C(=O)N[C@@H]([C@H]2O[C@H](SC)[C@H](O)[C@@H](O)[C@H]2O)[C@H](C)Cl)C1 [pirlimycin]
0.004339	CCC[C@@H]1C[C@@H](C(=O)N[C@@H]([C@H]2O[C@H](SC)[C@H](O)[C@@H](O)[C@H]2O)[C@@H](C)O)N(C)C1 [lincomycin]
